The text below walks through data of patent US10532066B2, “Surfactant lipids, compositions thereof, and uses thereof” (National Jewish Health, priority 2007, dated 2020).

For experiment [1], the system named is MAPK, IkBα and MKP-1 in differentiated U937 cells. Kind of experiment: Western blot of LPS induced MAPK and IkBα phosphorylation and MKP-1 expression. It counts as cell-based, human. Particulars: LPS 10 ng/ml, liposomes 200 μg/ml. How it is done: FIG. 4. POPG inhibits LPS induced MAPK and IkBα phosphorylation and MKP-1 expression. POPG liposomes (200 μg/ml) were added to monolayer cultures of differentiated U937 cells that received either no treatment or 10 ng/ml LPS. After incubating for the indicated time, cells were lysed using lysis buffer containing detergent, protease inhibitors and phosphatase inhibitors. Aliquots with 15 μg of protein from lysates were separated by SDS-PAGE and transferred onto nitrocellulose membranes. The amount of phosphorylation was detected using phospho-specific antibodies to p38MAPK, p42/p44 ERK, p46-p54 INK and phosphorylated IkBα. To determine equal loading of proteins between samples, the membranes were probed with rabbit polyclonal p46 INK, p42/p44 ERK, p38MAPK and IkBα antibodies. The expression of MKP-1 was detected with a polyclonal MKP-1 antibody.
FIG. 5. Quantification of POPG inhibition of LPS induced signaling. Western blot analysis as described in FIG. 4 was performed three or four times on separate samples and the intensity of phospho-p38, phospho-IkBα, phosphoERK, phospho JNK, phospho IkBα, total IkBα and MKP-1 was calculated using NIH Image J1.34 software.
FIG. 6. Molecular specificity in POPG action. Liposomes composed of POPC, DPPG or POPG were added to monolayer cultures of differentiated U937 cells that received either no treatment or 10 ng/ml LPS, as indicated. After 30 or 60 min cells were lysed and 15 μg of cellular protein from cultures was separated by SDS-PAGE and transferred onto nitrocellulose membranes. Phosphorylated and nonphosphorylated proteins were detected as described in FIG. 4.
FIG. 7. Comparative quantification of lipid dependent antagonism of LPS signaling. Western blot analysis was performed as described in FIG. 6 in three independent experiments. The intensity of the phosphorylated (p38, ERK, JNK and IkBα) and nonphosphorylated (total IkBα and MKP-1) proteins of interest was measured using NIH Image 0.1.34 software. Significance—*p<0.05, ** p<0.01.
Monolayers of unstimulated or stimulated macrophages were lysed on ice with 250 μl of ice-cold lysis buffer [50 mM Tris.HCl, pH 8.0, containing 137 mM NaCl, 10% (vol/vol) glycerol, 1% (vol/vol) Nonidet P-40, 1 mM NaF, 10 μg/ml leupeptin, 10 μg/ml aprotinin, 2 mM Na3VO4, and 1 mM phenylmethylsulfonyl fluoride (29). Insoluble nuclear material was pelleted by centrifugation at 14,000×g for 10 min at 4° C. and the supernatants were collected. 15 μg of protein from lysates was separated by SDS-PAGE and transferred onto nitrocellulose membranes (30). The blots were then washed in Tris-Tween-buffered saline [TTBS, 20 mM Tris-HCl buffer, pH 7.6, containing 137 mM NaCl and 0.05% (vol/vol) Tween 20], blocked with 5% (wt/vol) nonfat dry milk for 1 hour, and probed according to the method described by Towbin et. al. (30) with phospho-specific antibodies to p46-p54 JNK, p42/p44 ERK, and p38MAPK, or IkBα or with a polyclonal MKP-1 or IkBα antibodies in 5% (wt/vol) BSA dissolved in TTBS. With the use of horseradish peroxidase-conjugated secondary anti-rabbit or anti-mouse antibody, bound antibodies were detected by enhanced chemiluminescence (ECL plus, Amersham Biosciences, Piscataway, N.J.). To determine loading of proteins between samples, the membranes were probed with rabbit polyclonal p46 JNK, p42/p44 ERK, and p38MAPK antibodies.
(A western blot detects proteins with antibodies after separation by electrophoresis.)

Experiment [2] has as its system Respiratory Syncytial Virus (RSV). In words: RSV-induced cytokine production in BEAS2B cells. It counts as cell-based. To be noted: RSV multiplicity 3, 48 h, lipid 200 ug/ml.
For experiment [3] the test system is unchanged. In words: RSV-induced cytokine production in NHBE cells. It counts as cell-based. Particulars: RSV multiplicity 3, 48 h, lipid 200 ug/ml.
Experiment [4] shares this test system. In words: Cytopathic effects of RSV upon BEAS2B cells (photomicrography). It counts as cell-based. To be noted: multiplicity 3, 72 h, lipid 200 ug/ml. How it is done: Monolayers of BEAS2B cells were infected with RSV at a multiplicity of 3 for 72 h. Infections were performed on cells in either the absence or the presence of POPG (200 ug/ml). The cell monolayers were photographed at a magnification of 200×. Controls consisted of no viral challenge in either the presence or absence of POPG as indicated.
Monolayers of BEAS2B cells were infected with RSV at a multiplicity of 3 for 72 h. Infections were performed on cells in either the absence (b) or the presence (c,f) of POPG (200 ug/ml) and POPC (200 ug/ml) as indicated. Cells were photographed at a magnification of 200×. Controls (a,d,e) consisted of cell layers either not exposed to virus or exposed to POPG, and POPC in the absence of virus as indicated.
Monolayers of BEAS2B cells were infected with RSV at a multiplicity of 0.5-1, in either the presence or absence of 200 ug/ml POPG, or 200 ug/ml POPC, as indicated.
Monolayers of BEAS2B cells were either uninfected (CONL) or challenged with RSV at a multiplicity of 0.5/cell (RSV). Where indicated in the FIG. 44, RSV challenged cells were also treated with POPC (200 ug/ml) or POPG (200 ug/ml) liposomes; or POPG nanodiscs (nanoPOPG) at concentrations ranging from 100-300 ug/ml. Selected panels and fields are also shown at 400× magnification in FIG. 45.
Where indicated in FIG. 46, RSV challenged cells were also treated with nanodisc forms of dipalmitoyl-phosphatidylcholine (nanoDPPC), palmitoyl-oleoyl-phosphatidylcholine (nanoPOPC), or dioleoyl-phosphatidylcholine (nanoDOPC), dipalmitoyl-phosphatidylglycerol (nanoDPPG), dimyristoyl-phosphatidylglycerol (nanoDMPG), or dioleoyl-phosphatidylglycerol (nanoDOPG). At 72 h after infection, the cultures were examined by photomicrography at a magnification of 200×.

For a further experiment, the system named is RSV. Kind of experiment: RSV plaque progression in Hep2 monolayers, lipid in agar overlay. It counts as cell-based, Respiratory Syncytial Virus (RSV). Particulars: lipid in agar overlay 5 hours after virus, POPG 200-500 ug/ml, POPC 500 ug/ml, 5 days. How it is done:
Monolayers of Hep2 cells were subjected to RSV infection at levels that produce ca 100 plaques per well in quantitative plaque assays. The virus was incubated with the cells for 5 hours prior to agar overlay. The agar overlays contained either no additions, or POPG (200-500 ug/ml) or POPC (500 ug/ml).
The effects of POPG upon plaque formation as shown in Panel a of FIG. 39 were quantified in 3 independent experiments and are presented in this figure. The left panel of FIG. 40 provides the numbers of definite, and minute indefinite plaques formed in the absence and presence of POPG (200-500 ug/ml) as indicated. The right panel of FIG. 40 provides the numbers of definite plaques observed in the absence and presence of either POPG or POPC (200-500 ug/ml) as indicated.

Experiment [5] relates to Respiratory Syncytial Virus (RSV). In words: Cytopathic effects of RSV upon NHBE cells (photomicrography). It counts as cell-based. Particulars: multiplicity 3, 72 h, lipid 200 ug/ml. As to the method: Monolayers of NHBE cells were infected with RSV at a multiplicity of 3 for 72 h. Infections were performed on cells in either the absence or the presence of POPG (200 ug/ml). The cell monolayers were photographed at a magnification of 200×. Controls consisted of no viral challenge in either the presence or absence of POPG as indicated.
Monolayers of NHBE cells were infected with RSV at a multiplicity of 3 for 72 h. Infections were performed on cells in either the absence (b) or the presence (c,f) of POPG (200 ug/ml) and POPC (200 ug/ml) as indicated. Cells were photographed at a magnification of 200×. Controls (a,d,e) consisted of cell layers either not exposed to virus or exposed to POPG, and POPC in the absence of virus as indicated.
Monolayers of normal human bronchial epithelial cells were infected with RSV at a multiplicity of 0.5-1, in either the presence or absence of 200 ug/ml POPG, or 200 ug/ml POPC, as indicated.
A general note: Damage to the host cells serves as the signal in cytopathic effect assays.

As to `CCCCCCCC/C=C\CCCCCCCC(=O)O[C@H](COC(=O)CCCCCCCCCCCCCCC)COP(=O)([O-])OCC[N+](C)(C)C` [POPC, palmitoyl-oleoyl-phosphatidylcholine, reference compound], the “LPS-induced MKP-1 expression” value in experiment [1] is “neither POPC nor DPPG exerted a significant effect”. In addition, in experiment [1] (15-60 min), the “LPS-induced phosphorylation of p38, ERK, JNK and IkBα” value was “neither POPC nor DPPG exerted a significant effect”. For the same molecule, the IL-6 production entry in experiment [2] and in experiment [3] was “not” in each case. Further, the “cytopathic effects of RSV” value in experiment [4] and in experiment [5] was “not” throughout. For the same molecule, the “progression of RSV infection (plaques)” value in the experiment with RSV was “bullseye plaques”.
